Assay results taken from patent US20250312323A1 (Cavion, Inc., priority 2018, published 2025).

Legend:
[1] = tested on: patients with essential tremor; assay: T-CALM: TETRAS total score; assay type: in vivo, human
Method: The Total TETRAS score was defined as the sum of the TETRAS performance subscale total score and the TETRAS ADL subscale score. TETRAS TOTAL score combines both patient reported outcome and objective measurement of tremor amplitude in a single score. Analyses of the TETRAS-ADL was conducted using the same type of ANCOVA model as described for the TETRAS-PS, using two-sided tests at the alpha=0.05 level of significance (FIG. 3 and Table 3).
Both sets of scores were statistically analyzed.

[2] = tested on: patients with essential tremor; assay: T-CALM: electrocardiogram, vital signs, clinical laboratory, examinations; assay type: in vivo, human
Method: Electrocardiogram results were calculated as the average of the triplicate records at each time point. Baseline was defined as the mean of the triplicate values obtained pre-dose at Day 1. If this value was not available, the mean of the triplicate records obtained at screening were used.
Safety procedures involved collection of all TEAEs (treatment-emergent adverse events) coded into the Medical Dictionary for Regulatory Activities (MedDRA) version 20. Adverse events were classified by maximum severity, drug-related adverse events, serious adverse events, and adverse events leading to patient discontinuation.

[3] = Pharmacokinetics of CX-8998 immediate release capsules in healthy volunteers (Studies PN001, PN002); assay type: in vivo, human; conditions: 2-18 mg dose range
[4] = tested on: patients with essential tremor; assay: T-CALM: TETRAS performance subscale, investigator rated
[5] = Day 15, change from baseline, N = 39
[6] = Day 28, change from baseline, N = 37

**Q.** Which results are given for `CC(C)c1ccc(CC(=O)N[C@H](C)c2ccc(OCC(F)(F)F)cn2)cc1` [CX-8998]?
**A.** Subjects with improvement of at least 5 points by TETRAS Total score, number ([1]; Day 15, N 39): 22; TETRAS Total Score, subjects with 0 change, n (%) [1, 5]: 1 (2.6%); TETRAS Total Score, subjects with >0 to 1 point improvement, n (%) [1, 5]: 2 (5.1%); TETRAS Total Score, subjects with >0 to 1 point worsening, n (%) [1, 5]: 2 (5.1%); TETRAS Total Score, subjects with >1 to 2.5 point improvement, n (%) [1, 5]: 2 (5.1%); TETRAS Total Score, subjects with >1 to 2.5 point worsening, n (%) [1, 5]: 1 (2.6%); TETRAS Total Score, subjects with >2.5 to 5 point improvement, n (%) [1, 5]: 7 (17.9%); TETRAS Total Score, subjects with >2.5 to 5 point worsening, n (%) [1, 5]: 4 (10.3%); TETRAS Total Score, subjects with >5 to 10 point improvement, n (%) [1, 5]: 6 (15.4%); TETRAS Total Score, subjects with >5 to 10 point worsening, n (%) [1, 5]: 0; TETRAS Total Score, subjects with >10 point worsening, n (%) [1, 5]: 0; TETRAS Total Score, subjects with >10 to 20 point improvement, n (%) [1, 5]: 12 (30.8%); TETRAS Total Score, subjects with >20 point improvement, n (%) [1, 5]: 2 (5.1%); total TETRAS score with TETRAS-PS rated by independent video raters, vs placebo ([1]; Day 15 or 28): not statistically significant; Subjects with improvement of at least 5 points by TETRAS Total score, number ([1]; Day 28, N 37): 21; TETRAS Total Score, subjects with 0 change, n (%) [1, 6]: 0; TETRAS Total Score, subjects with >0 to 1 point improvement, n (%) [1, 6]: 2 (5.4%); TETRAS Total Score, subjects with >0 to 1 point worsening, n (%) [1, 6]: 4 (10.8%); TETRAS Total Score, subjects with >1 to 2.5 point improvement, n (%) [1, 6]: 2 (5.4%); TETRAS Total Score, subjects with >1 to 2.5 point worsening, n (%) [1, 6]: 2 (5.4%); TETRAS Total Score, subjects with >2.5 to 5 point improvement, n (%) [1, 6]: 5 (13.5%); TETRAS Total Score, subjects with >2.5 to 5 point worsening, n (%) [1, 6]: 1 (2.7%); TETRAS Total Score, subjects with >5 to 10 point improvement, n (%) [1, 6]: 7 (18.9%); TETRAS Total Score, subjects with >5 to 10 point worsening, n (%) [1, 6]: 0; TETRAS Total Score, subjects with >10 point worsening, n (%) [1, 6]: 0; TETRAS Total Score, subjects with >10 to 20 point improvement, n (%) [1, 6]: 8 (21.6%); TETRAS Total Score, subjects with >20 point improvement, n (%) [1, 6]: 5 (13.5%); clinical laboratory parameters vs placebo [2]: No clinically meaningful differences; vital signs, ECG, neurological and physical examinations [2]: No clinically significant abnormalities; dose proportionality of plasma profiles [3]: dose proportional; TETRAS-PS Score, subjects with 0 change, n (%) [4, 5]: 2 (5.1%); TETRAS-PS Score, subjects with >0 to 1 point improvement, n (%) [4, 5]: 3 (7.7%); TETRAS-PS Score, subjects with >0 to 1 point worsening, n (%) [4, 5]: 2 (5.1%); TETRAS-PS Score, subjects with >1 to 2.5 point improvement, n (%) [4, 5]: 4 (10.3%); TETRAS-PS Score, subjects with >1 to 2.5 point worsening, n (%) [4, 5]: 5 (12.8%); TETRAS-PS Score, subjects with >2.5 to 5 point improvement, n (%) [4, 5]: 10 (25.6%); TETRAS-PS Score, subjects with >2.5 to 5 point worsening, n (%) [4, 5]: 2 (5.1%); TETRAS-PS Score, subjects with >5 to 10 point improvement, n (%) [4, 5]: 8 (20.5%); TETRAS-PS Score, subjects with >5 to 10 point worsening, n (%) [4, 5]: 0; TETRAS-PS Score, subjects with >10 point improvement, n (%) [4, 5]: 3 (7.7%); TETRAS-PS Score, subjects with >10 point worsening, n (%) [4, 5]: 0; LS mean (±SE) change from baseline in TETRAS-PS scored by investigators (in person), primary endpoint analysis ([4]; Day 28): −4.8±0.80; Subjects with improvement of at least 5 points by TETRAS-PS score, number ([4]; Day 28, N 37): 16; Subjects with improvement of at least 5 points by TETRAS-PS score, percent ([4]; Day 28, N 37): (43.2%); TETRAS-PS Score, subjects with 0 change, n (%) [4, 6]: 1 (2.6%); TETRAS-PS Score, subjects with >0 to 1 point improvement, n (%) [4, 6]: 6 (15.4%); TETRAS-PS Score, subjects with >0 to 1 point worsening, n (%) [4, 6]: 2 (5.1%); TETRAS-PS Score, subjects with >1 to 2.5 point improvement, n (%) [4, 6]: 5 (12.8%); TETRAS-PS Score, subjects with >1 to 2.5 point worsening, n (%) [4, 6]: 1 (2.6%); TETRAS-PS Score, subjects with >2.5 to 5 point improvement, n (%) [4, 6]: 11 (28.2%); TETRAS-PS Score, subjects with >2.5 to 5 point worsening, n (%) [4, 6]: 1 (2.6%); TETRAS-PS Score, subjects with >5 to 10 point improvement, n (%) [4, 6]: 8 (20.5%); TETRAS-PS Score, subjects with >5 to 10 point worsening, n (%) [4, 6]: 0; TETRAS-PS Score, subjects with >10 point improvement, n (%) [4, 6]: 4 (10.3%); TETRAS-PS Score, subjects with >10 point worsening, n (%) [4, 6]: 0
